Results: patent US9879036B2, “Mitochondrial aldehyde dehydrogenase-2 binding compounds and methods of use thereof” (Aviv Therapeutics, Inc., priority 2014, dated 2018)
Numbering of substitutions follows the chain as printed.

Legend:
Type in all cases: biochemical
ALDH2 = target: T1, ALDH2 (Homo sapiens, UniProt P05091); assay: ALDH2 activity with 20 μM of the compound (Table 3); settings: 20 μM compound
T1 construct: His-tag (N); made in house; host or cells: E. coli BL21
T1 sequence (P05091 18-517): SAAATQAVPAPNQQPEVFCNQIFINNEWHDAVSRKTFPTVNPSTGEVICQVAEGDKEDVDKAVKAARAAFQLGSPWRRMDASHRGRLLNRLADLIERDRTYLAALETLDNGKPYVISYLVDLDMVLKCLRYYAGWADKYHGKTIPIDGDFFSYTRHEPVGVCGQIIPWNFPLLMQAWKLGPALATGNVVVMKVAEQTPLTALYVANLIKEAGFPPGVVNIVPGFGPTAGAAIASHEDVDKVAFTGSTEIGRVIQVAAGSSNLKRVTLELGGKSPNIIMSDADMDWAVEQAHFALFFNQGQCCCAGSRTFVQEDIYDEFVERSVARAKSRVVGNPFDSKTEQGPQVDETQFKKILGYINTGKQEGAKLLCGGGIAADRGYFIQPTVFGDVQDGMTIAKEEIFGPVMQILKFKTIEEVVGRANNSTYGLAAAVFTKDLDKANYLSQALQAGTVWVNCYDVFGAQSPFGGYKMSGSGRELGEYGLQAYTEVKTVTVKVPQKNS
Procedure: (§1) ALDH2 catalyzes the oxidative reaction of substrate acetaldehyde to acetic acid using NAD^+ as a cofactor. Enzymatic activity, or catalytic rate, of aldehyde dehydrogenase (ALDH2) are measured spectrophotometrically at UV wavelength λ340 nm by the accumulation of reduced product NADH derived from NAD^+. Absorbance at λ340 nm is quantitatively proportional to the amount of NADH being produced over time (6.22 O.D. unit=1 mmol of NADH, measured in a 1-cm width standard cuvette). This method is well-established in the literature [e.g. Rex et al., Alcohol Clin. Exp. Res. 9, 147 (1985)].
as §1, with “can be” for “are”
(§2) ALDH2 catalyzes the oxidative reaction of substrate acetaldehyde to acetic acid using NAD^+ as a cofactor. Enzymatic activity, or catalytic rate, of aldehyde dehydrogenase (ALDH2) can be measured spectrophotometrically at UV wavelength λ340 nm by the accumulation of reduced product NADH derived from NAD^+. Because compounds of formula (I) are considered to be agonists or “activators” of ALDH2 the enzymatic activity measured will exceed 100% of the baseline enzymatic activity of the enzyme in its normal activation state. As the concentration of the compounds of formula (I) decreases from 20 micromolar to 0.16 micromolar in the presence of ALDH, a decrease in the activation of enzymatic activity is observed for the wild-type ALDH2*1/*1 and the heterozygous form ALDH2*1/*2.

ALDH2*1/*1 = target: T2, ALDH2*1/*1 (Homo sapiens, UniProt P05091); assay: ALDH2 enzymatic activity, NADH accumulation at 340 nm, acetaldehyde substrate, wild type; settings: relative to baseline enzymatic activity (100%); for activity at 2.5 µM: 2.5 μM compound; for activity at 5 µM: 5 μM compound; for activity at 10 µM: 10 μM compound; for activity at 20 µM: 20 μM compound
T2 construct: His-tag (N); made in house; host or cells: E. coli BL21 (pTrcHis vector)
T2 sequence (P05091 18-517): T1 sequence (P05091 18-517)
Procedure: as §1
as §1, with “can be” for “are”
(§3) Cloning, expression and purification of human ALDH2 wild type and ALDH2*2 recombinant mutant enzymes: Full-length wild type human ALDH2 cDNA was purchased from ATCC (No. MGC-1806. GenBank ID: BC002967). The 18-amino acid mitochondria transport signal sequence was removed by PCR and cloned into the NheI/HindIII sites of a His-tag vector, pTrcHis, using standard molecular cloning techniques. The human ALDH2* cDNA construct containing the Asian E487K mutation was obtained by site-directed mutagenesis to create the E487K substitution of the wild type ALDH2. Both human clones were designed to express a recombinant protein with the His-tag at the N-terminus of the protein. For the co-expression experiments of human ALDH2 wild type and ALDH2*2 heterotetramers, a wild type ALDH2 gene and a ALDH2 E487K gene were inserted separately into the two multiple cloning sites of pETDuet-1 vector. (Novagen, CA, USA). All the vectors were transformed into BL21 E. coli host cells and subjected to 0.5 mM IPTG induction for protein expression at 30° C. Purifications of the recombinant proteins by affinity nickel columns (HisTrap, GE Healthy Science, USA) were carried out using standard protocols according to manufacturer's instructions (Novagen, USA).
as §2

ALDH2*1/*2 = target: T3, ALDH2*1/*2 (Homo sapiens, UniProt P05091, E504K); assay: ALDH2 enzymatic activity, NADH accumulation at 340 nm, acetaldehyde substrate, heterozygous form; settings: relative to baseline enzymatic activity (100%); for activity at 2.5 µM: 2.5 μM compound; for activity at 5 µM: 5 μM compound; for activity at 10 µM: 10 μM compound; for activity at 20 µM: 20 μM compound
T3 construct: His-tag; made in house; host or cells: E. coli BL21 (pETDuet-1 co-expression)
T3 sequence (P05091 18-517): T1 sequence (P05091 18-517)
T3 sequence (P05091 18-517 E504K): T1 sequence (P05091 18-517) with E487K
Procedure: as §1
as §1, with “can be” for “are”
as §3, §2

Structure (SMILES) | activity at 20 µM (ALDH2) [%] | activity at 2.5 µM (ALDH2*1/*1) [%] | activity at 5 µM (ALDH2*1/*1) [%] | activity at 10 µM (ALDH2*1/*1) [%] | activity at 20 µM (ALDH2*1/*1) [%] | activity at 2.5 µM (ALDH2*1/*2) [%] | activity at 5 µM (ALDH2*1/*2) [%] | activity at 10 µM (ALDH2*1/*2) [%] | activity at 20 µM (ALDH2*1/*2) [%]
COc1ccc(CNC(=O)c2cc(-c3c(CO)cccc3N(C)C)ccc2OCC2CC2)cc1F [AC16] | 100 to 150 | 106 | 106 | 105 | 133 | 104 | 116 | 126 | 138
COc1ccc(CNC(=O)c2cc(-c3cnccc3CO)cnc2OCC2CC2)cc1F [AC10] | > 250 | 172 | 238 | 346 | 414 | 239 | 321 | 388 | 531
COc1ccc(CNC(=O)c2cc(-c3ccsc3CO)cnc2OCC2CC2)cc1F [AC25, 2-(cyclopropylmethoxy)-N-(3-fluoro-4-methoxybenzyl)-5-(2-(hydroxymethyl)thiophen-3-yl)nicotinamide] | > 250 | 273 | 341 | 422 | 382 | 267 | 321 | 343 | 260
COc1ccc(CNC(=O)c2cc(-c3sccc3CO)cnc2OCC2CC2)cc1F [AC26, 2-(cyclopropylmethoxy)-N-(3-fluoro-4-methoxybenzyl)-5-(3-(hydroxymethyl)thiophen-2-yl)nicotinamide] | > 250 | 199 | 235 | 352 | 394 | 188 | 238 | 261 | 281
COc1ccc(CNC(=O)c2cc(-c3ccncc3CO)cnc2OCC2CC2)cc1F [AC12] | > 250 | 166 | 211 | 305 | 379 | 179 | 236 | 286 | 350
COc1ccc(CNC(=O)c2cc(-c3cscc3CO)cnc2OCC2CC2)cc1F [AC24] | > 250 | 175 | 248 | 321 | 428 | 149 | 234 | 269 | 216
COc1ccc(CNC(=O)c2cc(-c3cnccc3CO)ccc2OCC2CC2)cc1F [AC5] | > 250 | 266 | 330 | 352 | 487 | 318 | 382 | 428 | 504
COc1ccc(CNC(=O)c2cc(-c3ccsc3CO)ccc2OCC2CC2)cc1F [AC27] | > 250 | 293 | 315 | 379 | 364 | 323 | 420 | 419 | 410
COc1ccc(CNC(=O)c2cc(-c3c(CO)ccc[n+]3[O-])ccc2OCC2CC2)cc1F [AC14, 2-(4-(cyclopropylmethoxy)-3-((3-fluoro-4-methoxybenzyl)carbamoyl)phenyl)-3-(hydroxymethyl)pyridine 1-oxide] | 150 to 250 | 134 | 138 | 162 | 189 | 103 | 121 | 157 | 194
COc1ccc(CNC(=O)c2cc(-c3ccccc3CO)ccc2OCC2CC2)cc1F [AC2, 4-(cyclopropylmethoxy)-N-(3-fluoro-4-methoxybenzyl)-2′-(hydroxymethyl)-[1,1′-biphenyl]-3-carboxamide] | > 250 | 215 | 275 | 328 | 443 | 256 | 338 | 408 | 471
COc1ccc(CNC(=O)c2cc(-c3ncccc3CO)cnc2OCC2CC2)cc1F [AC8] | > 250 | 164 | 223 | 319 | 370 | 221 | 299 | 328 | 479
COc1ccc(CNC(=O)c2cc(-c3cccnc3CO)ccc2OCC2CC2)cc1F [AC7] | > 250 | 133 | 181 | 266 | 331 | 176 | 244 | 291 | 434
COc1ccc(CNC(=O)c2cc(-c3ccc(F)cc3CO)ccc2OCC2CC2)cc1F [AC23] | > 250 | 210 | 262 | 291 | 375 | 187 | 252 | 263 | 196
COc1ccc(CNC(=O)c2cc(-c3cccnc3CO)cnc2OCC2CC2)cc1F [AC11] | 150 to 250 | 123 | 135 | 169 | 211 | 125 | 158 | 185 | 248
